In series [1] the test system is Jurkat cells induced with staurosporin. In words: Confocal microscopy on apoptosis induced Jurkat cells. In kind it is cell-based. The following applies: 5 μM compound, 15 min at RT. The method, then:
In order to verify the FACS data with visual data confocal microscopy was performed. Confocal microscopy was also performed on Jurkat cells and apoptosis was induced by incubating 10^6 cells/ml in 1 μM staurosporin for 4 h (Stepczynska A et al, Staurosporine and conventional anticancer drugs induce overlapping, yet distinct pathways of apoptosis and caspase activation Oncogene (2001) 20, 1193). The experiments were also carried out in TES-buffer. For compound binding 10^6 cells (either induced with staurosporin or non-induced) were incubated for 15 min at RT in 100 μl cold TES buffer with a final concentration of 5 μM compound, then the cells were fixed onto polylysine coated slides and shortly incubated with propidium iodine (PI).

The subject of series [2] is staurosporine treated Jurkat cells. In words: FACS flow cytometry, apoptosis detection on staurosporine treated Jurkat cells with propidium iodide discrimination. In kind it is cell-based. The following applies: for labeling pattern in direct comparison with Annexin-V: apoptosis induced Jurkat cells, co-incubation, FIG. 10. An excerpt: Flow cytometry is a technology for counting and examining cells which pass in a flow of single cells through a laser beam. The laser light scatter provides information about cell features. The forward scatter (FSC) depends basically on the size of the cell, whereas the side scatter (SSC) is used to measure the granularity of the cell. Furthermore, if the cells carry fluorescence dyes, the respective fluorescence signal can be detected.
Flow cytometry is a widely applied technique in cell biology. Especially in the research of cell death mechanisms it is a standard procedure to count and differentiate between apoptotic, necrotic and healthy cells. For the detection of apoptosis the protein Annexin V is applied which is usually attached to a green fluorescence dye. Because Annexin V can also bind to necrotic cells, the red fluorescent nuclear stain propidium iodide is simultaneously applied as a necrosis marker.
The resulting fluorescence diagrams that are obtained from a flow cytometry procedure with Annexin V and propidium iodide are shown below. The detection channel for green fluorescence is termed FL-I (FIG. 4), the one for red fluorescence FL-III (FIG. 4). The plot of cell number (counts) versus FL-I intensity is called histogram. The fluorescence signal of the sample is always accompanied by a second signal at low intensities (left in the histogram) which is background fluorescence. By plotting the red fluorescence versus the green fluorescence (FL-I/FL-III-plot) a diagram is obtained in which the cells can be divided into red, green and red+green fluorescent cells. After gating the signals into four quadrant regions (Q1-Q4) (FIG. 4), the percentages of the differently stained cells is indicated in the diagram.
FACS measurements were performed with a DAKO Galaxy Flow Cytometry System using the following experimental setup: Jurkat-cells were grown to a density of about 1*10^6 cells/ml. Apoptosis was induced by adding 1 μmol/l staurosporine (Stepczynska A et al, Staurosporine and conventional anticancer drugs induce overlapping, yet distinct pathways of apoptosis and caspase activation, Oncogene (2001) 20, 1193). After incubation for 4 h at 37° C., the cells were washed with cold PBS-buffer (140 mmol/l NaCl, 10 mmol/l KCl, 6.4 mmol/l Na2HPO4, 2 mmol/l KH2PO4) and resuspended in cold TES-buffer (5 mmol/l TES, 145 mmol/l NaCl). 10^6 cells in 100 μl buffer with 1 μl of a 0.5 mmol/l aqueous solution of complex 1 were incubated for 15 minutes at 37° C. Subsequently, cells were washed twice with 500 μl TES-buffer and the cells were resuspended in 400 μl TES-buffer. 100 μl of the probe were diluted with 900 μl of buffer and measured immediately. To discriminate against necroses, 10 μl propidiumiodide solution (250 μg/ml) were added directly before the measurement.
Background: In flow cytometry, cells or beads pass a laser one at a time.

The conditions of series [3]: Zn^2+ complexation; cited from earlier work.
The next series concerns apoptotic liver. Briefly: Biodistribution after induction of hepatic apoptosis with Cycloheximid. The note with it: i.v., 3.5 h after induction of hepatic apoptosis. In kind it is in vivo, male Balb/c mice. The method, then: The biodistribution was performed in male Balb/c mice (6-8 weeks, body weight approx. 20 g). Hepatic apoptosis were induced by intraperitoneal injection of Cycloheximid ([…] in 500 μL PBS) (J. F. Tait, C. Smith, Z. Levashova, B. Patel, F. G. Blankenberg, J. Vanderheyden, J. Nucl. Med. 2006, 47, 1546). 1.5 h and 3.5 h after induction of hepatic apoptosis the 18F-labeled compound was injected i.v. (1-2 MBq in 100 μL PBS). The organ distribution was done after 30 min, 1 h, 2 h and 3 h. The amount of 18F-compound was determined by gamma counter.

In series [4] the test system is adenocarcinoma (Prostata) R3327-ATI. Briefly: PET imaging in radiation tumor model. In kind it is in vivo, Male Copenhagen rats. The note with it: day 6 and day 10 after 50 Gy radiation, i.v. An excerpt:
The PET images were obtained using a radiation model. Male Copenhagen rats with approx. 180 g body weight were transplanted with the hormone independent adenocarcinoma (Prostata) R3327-ATI on the left and right upper leg. The left tumor, as it reached a size of 3.5 cm^3 was radiated by linear particle accelerator with a single dosis of 50 Gy, whereas the right tumor served as control.
One day prior to the radiation as well as 6 and 10 d after radiation, the 18F-compound 19 (15-25 MBq in ca. 200 μL PBS) was injected i.v. and PET-aquisition with 1 h dynamic PET measurements were performed.

In series [5] the test system is cells which expose phosphatidylserine. The following applies: cited from earlier work.

In the case of `CCN(CC)c1ccc2c(-c3ccc(NC(=S)NCCOCCOCCOc4cc(CN5CCNCCNCCNCC5)cc(CN5CCNCCNCCNCC5)c4)cc3C(=O)O)c3ccc(=[N+](CC)CC)cc-3oc2c1` [compound AB], the “uptake / labeling of cells in confocal microscopy” value in series [1] is “labeling of apoptotic and necrotic cells”. Moreover, the “labeling pattern in direct comparison with Annexin-V” value in series [2] is “labeling apoptotic cells in Q2 and necrotic cells in Q4”.
For `c1ccc(CNCc2ccccn2)nc1` [DPA, 2,2-dipicolylamine], in series [3], the stability constant is on record as 10^5 (mol/l)^−1.
On to `O=C(NCCOCCOCCOc1cc(COc2cc(CN3CCNCCNCCNCC3)cc(CN3CCNCCNCCNCC3)c2)cc(COc2cc(CN3CCNCCNCCNCC3)cc(CN3CCNCCNCCNCC3)c2)c1)c1ccc(-c2c3ccc(=O)cc-3oc3cc(O)ccc23)c(C(=O)O)c1` [compound we], for which the median fluorescence intensity in series [2] (induced apoptotic Jurkat cells, FIG. 11) is given as 130. For the same molecule, the “effect of Zn^2+ complexation on binding” value in series [2] (with versus without Zn^2+) is given as “same effect”.
For the molecule `[18F]CCOc1cc(CN2CCNCCNCCNCC2)cc(CN2CCNCCNCCNCC2)c1` [compound 19], the “time the liver signal was stable” value in the series on apoptotic liver is reported as “more than 3 h”. For the same molecule, the “accumulation in the apoptotic liver” value with apoptotic liver (as early as 30 min after injection) is “accumulation in the apoptotic liver”. The “accumulation in irradiated tumor in comparison to the control tumor (PET)” value in series [4] was “increase in accumulation”.
As to “Anx V: phosphatidylserine-binding protein, fluorescent dye labeled, standard apoptosis sensor”, in series [1], the “uptake / labeling of cells in confocal microscopy” value is “green membrane staining”. The equilibrium dissociation constant (Kd) (as a rule, the free concentration of one partner at which half of the binding sites on the other are occupied at equilibrium, for simple one-to-one binding) in series [5] is under 0.1 nM. Besides, in series [2], the “labeling pattern in direct comparison with Annexin-V” value is “labels apoptotic cells in Q1 and Q2”. In series [2] (staurosporine treated Jurkat cells, green fluorescence only), the “% apoptosis (green)” value came out at 22%. Moreover, in series [2] (staurosporine treated Jurkat cells, propidium iodide red only), the “% necrosis (PI) (red)” value is 18%. Besides, in series [2] (staurosporine treated Jurkat cells, red + green), the “% necrosis/ late apoptosis (red + green)” value is 25%.

The values above are taken from patent US20110177002A1, “CYLIC POLYAMINES FOR BINDING PHOSPHATIDYLSERINE” (BAYER SCHERING PHARMA AKTIENGESELLSCHAFT, priority 2008, published 2011).
